According to patent publication US9409866B2, “Pyridine-2-amides useful as CB2 agonists” (Hoffmann-La Roche Inc., priority 2012, dated 2016):

Tests used:
human CB1 receptors = human CB1 receptors (Homo sapiens (Human), UniProt P21554); test: functional cAMP assay, CHO cells expressing human CB1; assay type: cell-based; details: functional cAMP assay, CHO cells expressing human CB1; read-out: Human CB1 EC50
Outline: (§1)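 Agonist EC50 values came from cAMP levels in CHO cells carrying human CB1 or CB2, after 30 min of compound treatment at 30 °C in the presence of 1 mM IBMX. Detection used a time-resolved FRET cAMP kit read against a cAMP standard curve.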

human CB2 receptors = human CB2 receptors (Homo sapiens (Human), UniProt P34972); test: functional cAMP assay, CHO cells expressing human CB2; assay type: cell-based; details: read-out: Human CB2 EC50
Chain of human CB2 receptors (P34972 whole entry): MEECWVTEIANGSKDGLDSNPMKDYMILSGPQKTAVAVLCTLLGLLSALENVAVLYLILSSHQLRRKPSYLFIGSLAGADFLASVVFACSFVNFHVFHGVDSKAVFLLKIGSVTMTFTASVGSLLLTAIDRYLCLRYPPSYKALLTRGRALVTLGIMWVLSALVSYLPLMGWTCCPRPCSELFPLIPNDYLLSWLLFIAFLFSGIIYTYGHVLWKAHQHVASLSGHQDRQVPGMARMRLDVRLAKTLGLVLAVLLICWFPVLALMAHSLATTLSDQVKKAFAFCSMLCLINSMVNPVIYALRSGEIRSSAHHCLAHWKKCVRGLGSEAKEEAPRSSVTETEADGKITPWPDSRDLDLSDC
Outline: as §1

Chain of human CB1 receptors (P21554 whole entry): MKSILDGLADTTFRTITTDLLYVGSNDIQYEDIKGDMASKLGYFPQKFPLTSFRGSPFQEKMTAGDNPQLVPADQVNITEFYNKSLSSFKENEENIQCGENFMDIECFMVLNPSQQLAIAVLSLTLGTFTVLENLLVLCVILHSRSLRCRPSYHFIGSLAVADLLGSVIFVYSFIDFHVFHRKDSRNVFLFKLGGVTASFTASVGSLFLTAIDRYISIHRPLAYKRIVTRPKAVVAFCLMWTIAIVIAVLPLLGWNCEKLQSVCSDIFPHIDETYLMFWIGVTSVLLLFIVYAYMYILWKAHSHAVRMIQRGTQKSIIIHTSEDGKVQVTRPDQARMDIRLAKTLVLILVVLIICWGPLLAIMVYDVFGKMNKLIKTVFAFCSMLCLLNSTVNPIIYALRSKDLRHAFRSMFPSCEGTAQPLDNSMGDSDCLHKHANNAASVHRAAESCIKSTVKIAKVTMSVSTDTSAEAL

Row | SMILES | EC50 (human CB1 receptors) | EC50 (human CB2 receptors)
1 | CC(C)(C)[C@H](CO)NC(=O)c1cc(OCC2CC2)c(Cl)cn1 [Example 29, 5-Chloro-4-cyclopropylmethoxy-pyridine-2-carboxylic acid ((R)-1-hydroxymethyl-2,2-dimethyl-propyl)-amide] | > 10 µM | 0.0646 µM
2 | CC[C@](C)(CO)NC(=O)c1cc(OCC2CC2)c(Cl)cn1 [Example 30, (−)-5-Chloro-4-cyclopropylmethoxy-pyridine-2-carboxylic acid (1-hydroxymethyl-1-methyl-propyl)-amide] | > 10 µM | 0.0192 µM
3 | COC(=O)C(C)C(C)(C)NC(=O)c1cc(OCC2CC2)c(Cl)cn1 (stereo not shown) [Example 31, Methyl 3-({[5-chloro-4-(cyclopropylmethoxy)pyridin-2-yl]carbonyl}amino)-2,3-dimethylbutanoate] | > 10 µM | 0.0095 µM
4 | O=C(NC1(c2nccs2)COC1)c1cc(OCC2CC2)c(Cl)cn1 [Example 32, 5-Chloro-4-cyclopropylmethoxy-pyridine-2-carboxylic acid (3-thiazol-2-yl-oxetan-3-yl)-amide] | > 10 µM | 0.0746 µM
5 | CCCC(C)(CO)NC(=O)c1cc(OCC2CC2)c(Cl)cn1 (stereo not shown) [Example 33, 5-Chloro-4-cyclopropylmethoxy-pyridine-2-carboxylic acid (1-hydroxymethyl-1-methyl-butyl)-amide] | > 10 µM | 0.0244 µM
6 | CNC(=O)[C@@H](C)C(C)(C)NC(=O)c1cc(OCC2CC2)c(Cl)cn1 [Example 34, (−)-5-Chloro-4-cyclopropylmethoxy-pyridine-2-carboxylic acid (1,1-dimethyl-2-methylcarbamoyl-propyl)-amide] | > 10 µM | 0.268 µM
7 | CNC(=O)[C@H](C)C(C)(C)NC(=O)c1cc(OCC2CC2)c(Cl)cn1 [Example 35, (+)-5-Chloro-4-cyclopropylmethoxy-pyridine-2-carboxylic acid (1,1-dimethyl-2-methylcarbamoyl-propyl)-amide] | > 10 µM | 0.143 µM
8 | O=C(NC1(c2ncco2)COC1)c1cc(OCC2CC2)c(Cl)cn1 [Example 36, 5-Chloro-4-cyclopropylmethoxy-pyridine-2-carboxylic acid (3-oxazol-2-yl-oxetan-3-yl)-amide] | > 10 µM | 0.0517 µM
9 | CCC[C@@](C)(CO)NC(=O)c1cc(OCC2CC2)c(Cl)cn1 [Example 37, (−)-5-Chloro-4-cyclopropylmethoxy-pyridine-2-carboxylic acid (1-hydroxymethyl-1-methyl-butyl)-amide] | > 10 µM | 0.0167 µM
10 | CC(C)(C)C(NC(=O)c1cc(OCC(F)(F)F)c(Cl)cn1)c1nccs1 (stereo not shown) [Example 38, 5-Chloro-4-(2,2,2-trifluoro-ethoxy)-pyridine-2-carboxylic acid (2,2-dimethyl-1-thiazol-2-yl-propyl)-amide] | > 10 µM | 0.0408 µM
11 | CC(C)(C)C(NC(=O)c1cc(OC2COC2)c(Cl)cn1)c1nccs1 (stereo not shown) [Example 39, 5-Chloro-4-(oxetan-3-yloxy)-pyridine-2-carboxylic acid (2,2-dimethyl-1-thiazol-2-yl-propyl)-amide] | > 10 µM | 0.128 µM
12 | O=C(N[C@@H](c1cccnc1)C(F)(F)F)c1cc(OCc2ccc(F)cc2)c(Cl)cn1 [Example 40, 5-Chloro-4-(4-fluoro-benzyloxy)-pyridine-2-carboxylic acid ((S)-2,2,2-trifluoro-1-pyridin-3-yl-ethyl)-amide] | 0.0901 µM | 0.005 µM
13 | O=C(N[C@@H](c1cccnc1)C(F)(F)F)c1cc(Cc2ccc(F)cc2)c(Cl)cn1 [Example 41, 5-Chloro-4-(4-fluoro-benzyl)-pyridine-2-carboxylic acid ((S)-2,2,2-trifluoro-1-pyridin-3-yl-ethyl)-amide] | 0.145 µM | 0.0033 µM
14 | O=C(NC1(c2nccs2)COC1)c1cc(OCC2CC2)c(C2CC2)cn1 [Example 42, 5-Cyclopropyl-4-cyclopropylmethoxy-pyridine-2-carboxylic acid (3-thiazol-2-yl-oxetan-3-yl)-amide] | > 10 µM | 0.0116 µM
